Measured values from the NIST ThermoML archive (doi:10.1021/je100148h).

Experiment: xn = mol fraction of the nth substance listed
Conditions: Fluid (supercritical or subcritical phases), Burnett expansion method

CCC [propane] + O=C=O
Conditions	mass density [kg/m3]
319.99 K, 766.06 kPa, x2 = 0.8017	13.1764
320 K, 410.29 kPa, x2 = 0.8017	6.9285
320 K, 561.41 kPa, x2 = 0.8017	9.5546
320 K, 1040.9 kPa, x2 = 0.8017	18.1699
320 K, 1137.2 kPa, x2 = 0.5158	20.5385
320 K, 1406.4 kPa, x2 = 0.8017	25.056
320 K, 1885.5 kPa, x2 = 0.8017	34.5507
320 K, 2500.6 kPa, x2 = 0.8017	47.6423
320 K, 3266.5 kPa, x2 = 0.8017	65.693
320.01 K, 158.39 kPa, x2 = 0.8017	2.6416
320.01 K, 177.71 kPa, x2 = 0.5158	2.9791
320.01 K, 217.81 kPa, x2 = 0.8017	3.6431
320.01 K, 244.02 kPa, x2 = 0.5158	4.1102
320.01 K, 299.21 kPa, x2 = 0.8017	5.0239
320.01 K, 334.43 kPa, x2 = 0.5158	5.6704
320.01 K, 457.2 kPa, x2 = 0.5158	7.8226
320.01 K, 622.82 kPa, x2 = 0.5158	10.7917
320.01 K, 844.37 kPa, x2 = 0.5158	14.8878
320.01 K, 1518.1 kPa, x2 = 0.5158	28.332
320.01 K, 1999.6 kPa, x2 = 0.5158	39.0832
320.01 K, 2584 kPa, x2 = 0.5158	53.9126
329.98 K, 579.89 kPa, x2 = 0.8017	9.5517
329.99 K, 791.85 kPa, x2 = 0.8017	13.1719
329.99 K, 1457.4 kPa, x2 = 0.8017	25.0477
329.99 K, 3418.1 kPa, x2 = 0.8017	65.6701
330 K, 308.75 kPa, x2 = 0.8017	5.0223
330 K, 423.55 kPa, x2 = 0.8017	6.9261
330 K, 1958.2 kPa, x2 = 0.8017	34.5379
330 K, 2604.9 kPa, x2 = 0.8017	47.625
330 K, 4401.1 kPa, x2 = 0.8017	90.5446
330.01 K, 163.4 kPa, x2 = 0.8017	2.6407
330.01 K, 183.36 kPa, x2 = 0.5158	2.9774
330.01 K, 224.73 kPa, x2 = 0.8017	3.6418
330.01 K, 251.86 kPa, x2 = 0.5158	4.1078
330.01 K, 345.31 kPa, x2 = 0.5158	5.667
330.01 K, 472.35 kPa, x2 = 0.5158	7.8181
330.01 K, 644.04 kPa, x2 = 0.5158	10.7856
330.01 K, 874.2 kPa, x2 = 0.5158	14.879
330.01 K, 1077.1 kPa, x2 = 0.8017	18.1629
330.01 K, 1179.4 kPa, x2 = 0.5158	20.5259
330.01 K, 1578.5 kPa, x2 = 0.5158	28.3153
330.01 K, 2086.8 kPa, x2 = 0.5158	39.0593
330.01 K, 2711.7 kPa, x2 = 0.5158	53.8795
330.01 K, 3442.6 kPa, x2 = 0.5158	74.3214
339.99 K, 598.29 kPa, x2 = 0.8017	9.5479
339.99 K, 817.54 kPa, x2 = 0.8017	13.1668
339.99 K, 1508.1 kPa, x2 = 0.8017	25.0378
340 K, 231.59 kPa, x2 = 0.8017	3.6405
340 K, 436.79 kPa, x2 = 0.8017	6.9234
340 K, 2030.2 kPa, x2 = 0.8017	34.5251
340 K, 2708.2 kPa, x2 = 0.8017	47.606
340 K, 3567.9 kPa, x2 = 0.8017	65.643
340 K, 4621.3 kPa, x2 = 0.8017	90.5058
340.01 K, 168.38 kPa, x2 = 0.8017	2.6397
340.01 K, 189.01 kPa, x2 = 0.5158	2.9763
340.01 K, 259.67 kPa, x2 = 0.5158	4.1062
340.01 K, 318.3 kPa, x2 = 0.8017	5.0202
340.01 K, 487.5 kPa, x2 = 0.5158	7.8151
340.01 K, 665.18 kPa, x2 = 0.5158	10.7812
340.01 K, 903.91 kPa, x2 = 0.5158	14.873
340.01 K, 1113.1 kPa, x2 = 0.8017	18.156
340.01 K, 1221.3 kPa, x2 = 0.5158	20.5179
340.01 K, 1638.3 kPa, x2 = 0.5158	28.3036
340.01 K, 2172.9 kPa, x2 = 0.5158	39.0436
340.01 K, 2837.3 kPa, x2 = 0.5158	53.8584
340.01 K, 3628.8 kPa, x2 = 0.5158	74.2902
340.01 K, 4509 kPa, x2 = 0.5158	102.472
340.01 K, 5849.8 kPa, x2 = 0.8017	124.787
340.02 K, 356.19 kPa, x2 = 0.5158	5.6647
350.01 K, 173.33 kPa, x2 = 0.8017	2.6389
350.01 K, 194.63 kPa, x2 = 0.5158	2.9748
350.01 K, 267.49 kPa, x2 = 0.5158	4.1042
350.01 K, 367.05 kPa, x2 = 0.5158	5.662
350.01 K, 502.56 kPa, x2 = 0.5158	7.8112
350.01 K, 616.66 kPa, x2 = 0.8017	9.5444
350.01 K, 686.24 kPa, x2 = 0.5158	10.776
350.01 K, 843.17 kPa, x2 = 0.8017	13.1618
350.01 K, 933.45 kPa, x2 = 0.5158	14.8658
350.01 K, 1149 kPa, x2 = 0.8017	18.1499
350.01 K, 1263 kPa, x2 = 0.5158	20.5077
350.01 K, 1558.6 kPa, x2 = 0.8017	25.0284
350.01 K, 1697.7 kPa, x2 = 0.5158	28.2897
350.01 K, 2101.9 kPa, x2 = 0.8017	34.5131
350.01 K, 2258.2 kPa, x2 = 0.5158	39.0243
350.01 K, 2810.8 kPa, x2 = 0.8017	47.5894
350.01 K, 2961.5 kPa, x2 = 0.5158	53.8306
350.01 K, 3716.3 kPa, x2 = 0.8017	65.6181
350.01 K, 3812 kPa, x2 = 0.5158	74.2525
350.01 K, 4782.9 kPa, x2 = 0.5158	102.417
350.01 K, 4838.8 kPa, x2 = 0.8017	90.4734
350.01 K, 5812.8 kPa, x2 = 0.5158	141.262
350.02 K, 238.49 kPa, x2 = 0.8017	3.6392
350.02 K, 327.8 kPa, x2 = 0.8017	5.0187
350.02 K, 450.01 kPa, x2 = 0.8017	6.9209
350.02 K, 6175.3 kPa, x2 = 0.8017	124.74
360.01 K, 200.24 kPa, x2 = 0.5158	2.9738
360.01 K, 275.27 kPa, x2 = 0.5158	4.1028
360.01 K, 377.87 kPa, x2 = 0.5158	5.66
360.01 K, 517.62 kPa, x2 = 0.5158	7.8085
360.01 K, 707.21 kPa, x2 = 0.5158	10.7723
360.01 K, 962.87 kPa, x2 = 0.5158	14.8606
360.01 K, 1184.7 kPa, x2 = 0.8017	18.1432
360.01 K, 1304.5 kPa, x2 = 0.5158	20.5005
360.01 K, 1608.9 kPa, x2 = 0.8017	25.0192
360.01 K, 1756.6 kPa, x2 = 0.5158	28.2797
360.01 K, 2173.2 kPa, x2 = 0.8017	34.4994
360.01 K, 2342.9 kPa, x2 = 0.5158	39.0102
360.01 K, 2912.6 kPa, x2 = 0.8017	47.5708
360.01 K, 3084.3 kPa, x2 = 0.5158	53.8108
360.01 K, 3992.6 kPa, x2 = 0.5158	74.2241
360.01 K, 5052 kPa, x2 = 0.5158	102.377
